According to patent US20240408093A1, “HETEROBIFUNCTIONAL COMPOUNDS AND THEIR USE IN TREATING DISEASE” (HALDA THERAPEUTICS OPCO, INC., priority 2022, published 2024):

Key:
GSPT1 = biological target: T1, GSPT1 (Homo sapiens, UniProt P15170+Q96SW2); assay: GSPT1 HiBiT degradation assay; format: cell-based; conditions: HEK293 LgBiT GSPT1 HiBiT cells, 6 hours
T1 construct: host or cells: HEK293 LgBiT / GSPT1 HiBiT CRISPR knock-in
Method in brief: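 HEK293 CRISPR knock-in cells expressing LgBiT and GSPT1-HiBiT were seeded at 1000 cells/well and, after 18-24 h, treated with titrated compound plus endurazine (0.5× final) at 37 °C. Luminescence read after 6 h; loss of signal reflects GSPT1 degradation, giving DC50.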

KRAS G12C = KRAS G12C (Homo sapiens, UniProt P01116, G12C); assay: KRAS G12C nucleotide exchange assay (SOS1-mediated, HTRF); format: biochemical; design: GST-tagged KRAS G12C (amino acids 2-169); conditions: 1 hr pre-incubation
Chain of KRAS G12C (P01116 2-169 isoform P01116-2 G12C): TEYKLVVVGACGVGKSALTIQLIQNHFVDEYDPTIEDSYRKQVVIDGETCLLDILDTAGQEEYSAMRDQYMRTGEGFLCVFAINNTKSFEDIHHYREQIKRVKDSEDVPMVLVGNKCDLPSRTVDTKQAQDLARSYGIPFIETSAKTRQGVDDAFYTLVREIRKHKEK
Experimental: KRAS target engagement (IC50 determination) was performed using a KRAS G12C nucleotide exchange assay. Specifically, compounds were tested against KRAS G12C in 10-point concentration IC50 mode with 3-fold serial dilution at a starting concentration of 10 μM. ARS1620 was used as a control.
Briefly, GST-tagged KRAS G12C (amino acids 2-169) was mixed with anti-GST Tb antibody (1.5× solution) and 10 μL was delivered to reaction wells. Compounds were delivered using an acoustic dispenser (Echo, Labcyte) and pre-incubated with protein for 1 hr at RT. KRAS/anti-GST Tb Ab/compound mixture was incubated for 1 hour at room temperature. A 3× solution of SOS1 (amino acids 564-1049) and GTP-DY-647P1 (GTP*) was prepared in reaction buffer. A 5 μL aliquot of SOS1/GTP* solution was added to reaction wells to initiate the exchange reaction. No-SOS1 reaction or max compound concentration was used as blank. The final concentrations of KRAS G12C, SOS1, and GTP* were 30 nM, 20 nM, and 0.15 μM, respectively. SOS1 mediated exchange of GDP to GTP-DY-647P was measured using HTRF (Ex/Em=(320-75/665-7.5; 615-8.5)) using an Envision Plate Reader (Perkin Elmer). IC50 determination was performed using a Sigmoidal dose response (variable slope) equation.

T1 sequence (P15170 whole entry): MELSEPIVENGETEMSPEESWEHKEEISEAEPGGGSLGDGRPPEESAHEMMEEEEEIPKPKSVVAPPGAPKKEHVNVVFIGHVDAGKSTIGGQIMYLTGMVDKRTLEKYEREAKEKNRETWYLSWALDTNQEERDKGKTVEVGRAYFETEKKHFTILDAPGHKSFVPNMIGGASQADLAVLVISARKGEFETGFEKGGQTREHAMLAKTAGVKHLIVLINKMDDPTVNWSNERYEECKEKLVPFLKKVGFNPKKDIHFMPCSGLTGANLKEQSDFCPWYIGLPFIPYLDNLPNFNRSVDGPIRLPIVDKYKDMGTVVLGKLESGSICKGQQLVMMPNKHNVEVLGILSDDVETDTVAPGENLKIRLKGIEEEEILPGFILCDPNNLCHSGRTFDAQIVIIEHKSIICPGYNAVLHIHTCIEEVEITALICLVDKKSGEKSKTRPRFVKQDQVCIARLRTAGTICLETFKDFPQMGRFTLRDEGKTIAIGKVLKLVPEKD
T1 sequence (Q96SW2 whole entry): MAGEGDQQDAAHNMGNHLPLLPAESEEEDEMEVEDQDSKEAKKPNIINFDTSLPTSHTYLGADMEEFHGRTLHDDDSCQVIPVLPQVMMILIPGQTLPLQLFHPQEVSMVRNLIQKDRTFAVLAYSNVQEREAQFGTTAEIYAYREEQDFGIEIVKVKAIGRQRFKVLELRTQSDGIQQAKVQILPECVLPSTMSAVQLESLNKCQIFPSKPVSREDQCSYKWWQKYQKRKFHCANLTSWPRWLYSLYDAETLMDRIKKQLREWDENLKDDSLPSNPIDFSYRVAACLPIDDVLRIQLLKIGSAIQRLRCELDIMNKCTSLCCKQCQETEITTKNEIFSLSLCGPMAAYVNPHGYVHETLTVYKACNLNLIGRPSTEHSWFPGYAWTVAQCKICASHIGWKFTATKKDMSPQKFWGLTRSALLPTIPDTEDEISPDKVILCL
T1 sequence (Q16531 whole entry partner): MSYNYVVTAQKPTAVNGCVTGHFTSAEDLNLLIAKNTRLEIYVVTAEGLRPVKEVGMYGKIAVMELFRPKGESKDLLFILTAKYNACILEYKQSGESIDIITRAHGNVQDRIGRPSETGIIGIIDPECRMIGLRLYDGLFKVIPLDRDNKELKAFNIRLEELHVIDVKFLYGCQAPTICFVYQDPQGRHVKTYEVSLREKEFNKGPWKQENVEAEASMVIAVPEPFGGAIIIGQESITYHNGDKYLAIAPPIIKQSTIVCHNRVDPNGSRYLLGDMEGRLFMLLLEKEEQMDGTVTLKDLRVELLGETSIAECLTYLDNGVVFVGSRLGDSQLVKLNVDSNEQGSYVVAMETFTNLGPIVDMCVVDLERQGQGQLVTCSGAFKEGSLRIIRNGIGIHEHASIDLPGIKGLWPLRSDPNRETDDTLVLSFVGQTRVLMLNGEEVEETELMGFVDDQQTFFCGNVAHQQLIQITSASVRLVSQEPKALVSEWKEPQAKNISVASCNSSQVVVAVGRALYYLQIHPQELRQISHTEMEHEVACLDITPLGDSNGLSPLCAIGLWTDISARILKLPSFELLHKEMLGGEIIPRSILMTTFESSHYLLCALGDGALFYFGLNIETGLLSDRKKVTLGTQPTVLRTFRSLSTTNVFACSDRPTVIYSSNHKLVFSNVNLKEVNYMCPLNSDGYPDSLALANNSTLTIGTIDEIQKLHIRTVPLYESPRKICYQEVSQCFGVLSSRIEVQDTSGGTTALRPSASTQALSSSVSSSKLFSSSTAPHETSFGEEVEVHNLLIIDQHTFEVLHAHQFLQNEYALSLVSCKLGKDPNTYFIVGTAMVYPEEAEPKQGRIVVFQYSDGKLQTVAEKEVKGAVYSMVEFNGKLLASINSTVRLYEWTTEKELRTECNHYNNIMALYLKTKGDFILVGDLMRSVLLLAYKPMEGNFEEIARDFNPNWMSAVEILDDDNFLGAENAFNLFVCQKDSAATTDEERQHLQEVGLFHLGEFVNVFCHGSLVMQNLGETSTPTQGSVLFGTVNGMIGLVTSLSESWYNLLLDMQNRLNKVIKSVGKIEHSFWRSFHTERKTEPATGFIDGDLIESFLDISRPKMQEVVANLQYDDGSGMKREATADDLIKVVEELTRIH

| SMILES | DC50 (GSPT1) [nM] | IC50 (KRAS G12C) [nM] |
| --- | --- | --- |
| C=C(COc1ccc(Cl)cc1NC(=O)NCc1ccc2c(c1)CN(C1CCC(=O)NC1=O)C2=O)C(=O)N1CC2(CC(n3nc(-c4ccc5c(cnn5C)c4)c(-c4c(Cl)c(C)cc5[nH]ncc45)c3C)C2)C1 (stereo not shown) [Compound I-76] | 50 to 500 | 100 to 5000 |
| C=C(COc1cc(NC(=O)NCc2ccc3c(c2)CN(C2CCC(=O)NC2=O)C3=O)cc(C(F)(F)F)c1)C(=O)N1CC2(CC(n3nc(-c4ccc5c(cnn5C)c4)c(-c4c(Cl)c(C)cc5[nH]ncc45)c3C)C2)C1 (stereo not shown) [Compound I-77] | 50 to 500 | 100 to 5000 |
| C=C(COc1cc(NC(=O)NCc2ccc3c(c2F)CN(C2CCC(=O)NC2=O)C3=O)cc(C(F)(F)F)c1)C(=O)N1CC2(CC(n3nc(-c4ccc5c(cnn5C)c4)c(-c4c(Cl)c(C)cc5[nH]ncc45)c3C)C2)C1 (stereo not shown) [Compound I-68] | > 2500 | 100 to 5000 |
| C=C(COc1cccc(NC(=O)NCc2ccc3c(c2)CN(C2CCC(=O)NC2=O)C3=O)c1)C(=O)N1CCN(c2nc(OC[C@@H]3CCCN3C)nc3c2CCN(c2cccc4cccc(Cl)c24)C3)C[C@@H]1CC#N (stereo partly shown) [Compound I-49] | 500 to 2500 | < 100 |
| C=C(COc1c(Cl)cccc1NC(=O)NCc1ccc2c(c1)CN(C1CCC(=O)NC1=O)C2=O)C(=O)N1CCN(c2nc(OC[C@@H]3CCCN3C)nc3c2CCN(c2cccc4cccc(Cl)c24)C3)C[C@@H]1CC#N (stereo partly shown) [Compound I-86] | < 50 | < 100 |
| C=C(COc1cc(NC(=O)NCc2ccc3c(c2F)CN(C2CCC(=O)NC2=O)C3=O)cc(C(F)(F)F)c1)C(=O)N1CCN(c2nc(OC[C@@H]3CCCN3C)nc3c2CCN(c2cccc4cccc(Cl)c24)C3)C[C@@H]1CC#N (stereo partly shown) [Compound I-85] | 50 to 500 | < 100 |
| C=C(COc1cc(Cl)cc(NC(=O)NCc2cc3c(cc2F)C(=O)N(C2CCC(=O)NC2=O)C3)c1)C(=O)N1CCN(c2nc(OC[C@@H]3CCCN3C)nc3c2CCN(c2cccc4cccc(Cl)c24)C3)C[C@@H]1CC#N (stereo partly shown) [Compound I-64] | 500 to 2500 | < 100 |
| C=C(COc1cc(NC(=O)NCc2ccc3c(c2)CN(C2CCC(=O)NC2=O)C3=O)cc(C(F)(F)F)c1)C(=O)N1CCN(c2nc(OC[C@@H]3CCCN3C)nc3c2CCN(c2cccc4cccc(Cl)c24)C3)C[C@@H]1CC#N (stereo partly shown) [Compound I-48] | 500 to 2500 | < 100 |
| C=C(COc1ccccc1CNC(=O)NCc1ccc2c(c1)CN(C1CCC(=O)NC1=O)C2=O)C(=O)N1CCN(c2nc(OC[C@@H]3CCCN3C)nc3c2CCN(c2cccc4cccc(Cl)c24)C3)C[C@@H]1CC#N (stereo partly shown) [Compound I-63] | > 2500 | < 100 |
| C=C(COc1cc(C(F)(F)F)c(Cl)cc1NC(=O)NCc1ccc2c(c1)CN(C1CCC(=O)NC1=O)C2=O)C(=O)N1CCN(c2nc(OC[C@@H]3CCCN3C)nc3c2CCN(c2cccc4cccc(Cl)c24)C3)C[C@@H]1CC#N (stereo partly shown) [Compound I-88] | < 50 | < 100 |
| C=C(COc1cc(NC(=O)NCc2ccc3c(c2)CN(C2CCC(=O)NC2=O)C3=O)cc(OC)c1)C(=O)N1CC2(CC(n3nc(-c4ccc5c(cnn5C)c4)c(-c4c(Cl)c(C)cc5[nH]ncc45)c3C)C2)C1 (stereo not shown) [Compound I-67] | 500 to 2500 | 100 to 5000 |
| C=C(CN(C(=O)NCc1ccc2c(c1)CN(C1CCC(=O)NC1=O)C2=O)c1ccc(C)c(Cl)c1)C(=O)N1C[C@@H](COc2nc(Nc3cnn(C)c3)nc3[nH]cc(Cl)c23)[C@H](OC)C1 (stereo partly shown) [Compound I-71] | 500 to 2500 | – |
| C=C(COc1cc(Cl)cc(NC(=O)NCc2ccc3c(c2)CN(C2CCC(=O)NC2=O)C3=O)c1F)C(=O)N1CCN(c2nc(OC[C@@H]3CCCN3C)nc3c2CCN(c2cccc4cccc(Cl)c24)C3)C[C@@H]1CC#N (stereo partly shown) [Compound I-84] | 50 to 500 | > 10000 |
| C=C(COc1cc(Cl)c(OC)cc1NC(=O)NCc1ccc2c(c1)CN(C1CCC(=O)NC1=O)C2=O)C(=O)N1CC2(CC(n3nc(-c4ccc5c(cnn5C)c4)c(-c4c(Cl)c(C)cc5[nH]ncc45)c3C)C2)C1 (stereo not shown) [Compound I-66] | 50 to 500 | 100 to 5000 |
| C=C(COc1cc(NC(=O)NCc2ccc3c(c2)CN(C2CCC(=O)NC2=O)C3=O)cc(F)c1F)C(=O)N1CCN(c2nc(OC[C@@H]3CCCN3C)nc3c2CCN(c2cccc4cccc(Cl)c24)C3)C[C@@H]1CC#N (stereo partly shown) [Compound I-75] | > 2500 | < 100 |
| C=C(COc1cc(Cl)cc(NC(=O)NCc2ccc3c(c2F)CN(C2CCC(=O)NC2=O)C3=O)c1)C(=O)N1CCN(c2nc(OC[C@@H]3CCCN3C)nc3c2CCN(c2cccc4cccc(Cl)c24)C3)C[C@@H]1CC#N (stereo partly shown) [Compound I-116] | 500 to 2500 | < 100 |
| C=C(COc1ccc(CN2C(=O)CCC(N3Cc4cc(CNC(=O)Nc5ccc(C)c(Cl)c5)ccc4C3=O)C2=O)cc1)C(=O)N1CCN(c2nc(OC[C@H]3CCCN3C)nc3c2CCN(c2cccc4cccc(Cl)c24)C3)C[C@@H]1CC#N (stereo in doubt) [Compound I-44] | > 2500 | 100 to 5000 |
| C=C(COc1ccccc1NC(=O)NCc1ccc2c(c1)CN(C1CCC(=O)NC1=O)C2=O)C(=O)N1CCN(c2nc(OC[C@H]3CCCN3C)nc3c2CCN(c2cccc4cccc(Cl)c24)C3)C[C@H]1CC#N (stereo partly shown) [Compound I-80] | > 2500 | < 100 |
| C=C(COc1cc(Cl)cc(NC(=O)NCc2ccc3c(c2)CN(C2CCC(=O)NC2=O)C3=O)c1)C(=O)N1CC2(CC(n3nc(-c4ccc5c(cnn5C)c4)c(-c4c(Cl)c(C)cc5[nH]ncc45)c3C)C2)C1 (stereo not shown) [Compound I-56] | > 2500 | 100 to 5000 |
| C=C(COC(=O)NCCCc1ccc(Cl)cc1NC(=O)NCc1ccc2c(c1)CN(C1CCC(=O)NC1=O)C2=O)C(=O)N1CCN(c2nc(OC[C@@H]3CCCN3C)nc3c2CCN(c2cccc4cccc(Cl)c24)C3)C[C@@H]1CC#N (stereo partly shown) [Compound I-79] | 500 to 2500 | < 100 |
| C=C(COc1cc(NC(=O)NCc2ccc3c(c2)CN(C2CCC(=O)NC2=O)C3=O)ccc1OC)C(=O)N1CCN(c2nc(OC[C@@H]3CCCN3C)nc3c2CCN(c2cccc4cccc(Cl)c24)C3)C[C@@H]1CC#N (stereo partly shown) [Compound I-89] | 500 to 2500 | < 100 |
| C=C(COC(=O)c1c(C)csc1NC(=O)NCc1ccc2c(c1)CN(C1CCC(=O)NC1=O)C2=O)C(=O)N1CCN(c2nc(OC[C@@H]3CCCN3C)nc3c2CCN(c2cccc4cccc(Cl)c24)C3)C[C@@H]1CC#N (stereo partly drawn) [Compound I-72, 2-[(2S)-4-[7-(8-chloro-1-naphthyl)-2-[[(2S)-1-methylpyrrolidin-2-yl]methoxy]-6,8-dihydro-5H-pyrido[3,4-d]pyrimidin-4-yl]-2-(cyanomethyl)piperazine-1-carbonyl]allyl 2-[[2-(2,6-dioxo-3-piperidyl)-1-oxo-isoindolin-5-yl]methylcarbamoylamino]-4-methyl-thiophene-3-carboxylate] | > 2500 | < 100 |
| C=C(COc1cc(F)c(F)cc1NC(=O)NCc1ccc2c(c1)CN(C1CCC(=O)NC1=O)C2=O)C(=O)N1CCN(c2nc(OC[C@@H]3CCCN3C)nc3c2CCN(c2cccc4cccc(Cl)c24)C3)C[C@@H]1CC#N (stereo partly shown) [Compound I-62] | 500 to 2500 | < 100 |
| C=C(COc1cc(NC(=O)NCc2ccc3c(c2)CN(C2CCC(=O)NC2=O)C3=O)cc(OC)c1)C(=O)N1CCN(c2nc(OC[C@@H]3CCCN3C)nc3c2CCN(c2cccc4cccc(Cl)c24)C3)C[C@@H]1CC#N (stereo partly shown) [Compound I-50] | > 2500 | < 100 |
| C=C(COC(=O)NCCc1ccc(Cl)cc1NC(=O)NCc1ccc2c(c1)CN(C1CCC(=O)NC1=O)C2=O)C(=O)N1CCN(c2nc(OC[C@@H]3CCCN3C)nc3c2CCN(c2cccc4cccc(Cl)c24)C3)C[C@@H]1CC#N (stereo partly shown) [Compound I-78] | 500 to 2500 | < 100 |
| C=C(COc1c(CNC(=O)Nc2ccc(C)c(Cl)c2)ccc2c1CN(C1CCC(=O)NC1=O)C2=O)C(=O)N1CCN(c2nc(OC[C@@H]3CCCN3C)nc3c2CCN(c2cccc4cccc(Cl)c24)C3)C[C@@H]1CC#N (stereo partly shown) [Compound I-90] | 50 to 500 | < 100 |
| C=C(CN(C(=O)NCc1ccc2c(c1)CN(C1CCC(=O)NC1=O)C2=O)c1ccc(C)c(Cl)c1)C(=O)Nc1cccc(Oc2nc(Nc3ccc(N4CCN(C)CC4)cc3)nc3ccsc23)c1 (stereo not shown) [Compound I-70] | > 2500 | – |
| C=C(COc1cc(-c2ccccn2)ccc1CNc1nc(N[C@H](CC)CO)nc2c1ncn2C(C)C)C(=O)N1CCN(c2nc(OC[C@@H]3CCCN3C)nc3c2CCN(c2cccc4cccc(Cl)c24)C3)C[C@@H]1CC#N [II-186] | – | < 100 |
| C=C(CN1CCN(c2nc(NCc3nc4cc(C)ccc4[nH]3)n3ncc(Br)c3n2)CC1)C(=O)N1CCN(c2nc(OC[C@@H]3CCCN3C)nc3c2CCN(c2cccc4cccc(Cl)c24)C3)C[C@@H]1CC#N [II-190] | – | < 100 |
| C=C(COc1c(Cl)cccc1NC(=O)NCc1ccc2c(c1)CN(C1CCC(=O)NC1=O)C2=O)C(=O)N[C@@H]1CN(c2nc(Nc3cn(C)nc3OC)c3ncn(C)c3n2)C[C@H]1F (stereo partly shown) [Compound I-69] | 50 to 500 | – |
